Here are results for 16 compounds from patent publication US20240409609A1, “REVERSIBLE LYSINE COVALENT MODIFIERS OF EGFR AND USES THEREOF” (Terremoto Biosciences, Inc., priority 2021, published 2024).

Each structure is given as a SMILES string.

In one experiment the target is WT-EGFR (Homo sapiens (Human), UniProt P00533). Nature of the experiment: EGFR jump dilution study. It is filed as biochemical. The following applies: 100-fold dilution, 1 mM ATP, up to 10 hrs. How it is done:
Enzyme:inhibitor complexes were pre-formed at EGFR 100Y^1 final reaction concentration by incubating enzyme with an inhibitor at the greater concentration of either 10Y^1 inhibitor IC50, or 1:1.2 stoichiometry with enzyme.
After incubating enzyme:inhibitor complexes on ice for 30 min, reactions were diluted in two steps 100-fold into reaction buffer supplemented with 1 mM ATP, and 20 uM AssayQuant substrate (AQT0734), with final reaction volumes of 20 μL in a 384 well reaction plate. Wells were read immediately and at timepoints post-dilution for up to 10 hrs in a PerkinElmer Ensight plate reader, according to the AssayQuant manufacturer's instructions.
Data processing: Raw fluorescence signal was first background corrected by subtracting the fluorescence intensity of wells containing only the AssayQuant substrate, and no enzyme. Enzyme activity was normalized relative DMSO controls for each enzyme at each timepoint. In this way, DMSO-treated wells appear as a constant normalized activity=1 throughout the assay.
The X-axis of each of the three graphs represents the time after dilution that the enzyme activity was measured, with t=0 representing the time of jump dilution. The Y-axis of each graph provides the enzymatic activity at each time point. Enzymatic activity is normalized to the DMSO-treated control samples (i.e., the same enzyme variant treated with DMSO instead of compound). As such, a DMSO-normalized value of 1.0 represents full enzymatic activity (i.e., equivalent to the DMSO-treated control), while a value below 1.0 represents reduced activity relative to control (i.e., some degree of enzyme inhibition at the time measured). The data points over time (e.g., from 0 to 600 minutes post-dilution) are therefore indicative of the off-rate for the compound. […] Thus, the jump-dilution data provided a qualitative estimate of the off-rate kinetics for each compound against the panel of EGFR variants. Experiments were run in duplicate, resulting in two different data sets for each graph.

The target of another experiment is EGFR WT (Homo sapiens (Human), UniProt P00533). Kind of experiment: EGFR biochemical assay (AssayQuant chelation-enhanced fluorescence). The following applies: 30 min preincubation, reaction time 360 min.
The next experiment deals with EGFR WT in Ba/F3 cells (Homo sapiens (Human), UniProt P00533). Kind of experiment: Ba/F3 pEGFR assay (AlphaLISA p-EGFR Tyr1068). It is filed as cell-based. The following applies: 2 hrs treatment, media supplemented with EGF. The method, then: Cellular activity was determined using the Ba/F3 system for studying oncogenic mutant kinases (Warmuth 2007). […] Transduced cells were maintained in RPMI 1640 with 10% FBS. EGFR WT transduced cells were grown in media supplemented with EGF. To assay cellular activity of inhibitors, cells were treated with inhibitor from 1000X DMSO stock dilutions and incubated for 2 hrs at 37° C. 5% CO2. Subsequently, p-EGFR (Tyr1068) was quantified using a commercial sandwich immunoassay (PerkinElmer AlphaLISA SureFire assay; ALSU-PEGFR) according to the manufacturer's instructions. […] Curr Opin Oncol 19, 55-60 (2007), which is incorporated herein in its entirety.
EGFR WT in Ba/F3 cells, sequence (P00533 25-1210): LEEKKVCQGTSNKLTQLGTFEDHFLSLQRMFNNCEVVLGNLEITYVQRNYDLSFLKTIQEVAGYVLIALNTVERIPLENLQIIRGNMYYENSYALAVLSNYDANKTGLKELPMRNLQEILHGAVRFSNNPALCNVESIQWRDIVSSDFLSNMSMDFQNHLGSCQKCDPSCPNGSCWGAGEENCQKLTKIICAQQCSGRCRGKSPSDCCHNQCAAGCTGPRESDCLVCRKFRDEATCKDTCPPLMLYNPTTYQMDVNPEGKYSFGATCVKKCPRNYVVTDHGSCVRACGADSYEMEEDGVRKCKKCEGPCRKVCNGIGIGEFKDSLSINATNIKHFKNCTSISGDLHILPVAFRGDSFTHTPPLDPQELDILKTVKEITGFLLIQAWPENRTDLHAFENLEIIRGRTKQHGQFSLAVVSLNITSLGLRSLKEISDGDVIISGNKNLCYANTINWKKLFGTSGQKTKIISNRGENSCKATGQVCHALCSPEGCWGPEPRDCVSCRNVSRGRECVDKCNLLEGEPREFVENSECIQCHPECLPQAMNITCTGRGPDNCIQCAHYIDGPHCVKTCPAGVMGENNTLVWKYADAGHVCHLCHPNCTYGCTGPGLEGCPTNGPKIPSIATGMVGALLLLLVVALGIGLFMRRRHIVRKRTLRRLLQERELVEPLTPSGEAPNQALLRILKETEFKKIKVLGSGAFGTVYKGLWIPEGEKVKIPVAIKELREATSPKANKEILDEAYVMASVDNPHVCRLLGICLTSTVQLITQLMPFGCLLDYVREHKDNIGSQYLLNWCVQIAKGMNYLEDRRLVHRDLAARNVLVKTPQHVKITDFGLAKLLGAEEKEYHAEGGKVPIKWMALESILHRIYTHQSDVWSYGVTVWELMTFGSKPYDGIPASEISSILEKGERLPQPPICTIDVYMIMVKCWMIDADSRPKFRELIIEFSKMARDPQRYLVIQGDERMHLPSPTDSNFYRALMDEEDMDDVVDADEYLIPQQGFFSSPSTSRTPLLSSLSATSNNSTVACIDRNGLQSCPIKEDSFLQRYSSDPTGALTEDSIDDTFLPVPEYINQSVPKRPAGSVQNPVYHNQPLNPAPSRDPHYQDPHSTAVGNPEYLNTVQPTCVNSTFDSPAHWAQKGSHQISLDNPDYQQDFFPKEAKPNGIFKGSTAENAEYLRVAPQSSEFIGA

EGFR WT, sequence (P00533 668-1210): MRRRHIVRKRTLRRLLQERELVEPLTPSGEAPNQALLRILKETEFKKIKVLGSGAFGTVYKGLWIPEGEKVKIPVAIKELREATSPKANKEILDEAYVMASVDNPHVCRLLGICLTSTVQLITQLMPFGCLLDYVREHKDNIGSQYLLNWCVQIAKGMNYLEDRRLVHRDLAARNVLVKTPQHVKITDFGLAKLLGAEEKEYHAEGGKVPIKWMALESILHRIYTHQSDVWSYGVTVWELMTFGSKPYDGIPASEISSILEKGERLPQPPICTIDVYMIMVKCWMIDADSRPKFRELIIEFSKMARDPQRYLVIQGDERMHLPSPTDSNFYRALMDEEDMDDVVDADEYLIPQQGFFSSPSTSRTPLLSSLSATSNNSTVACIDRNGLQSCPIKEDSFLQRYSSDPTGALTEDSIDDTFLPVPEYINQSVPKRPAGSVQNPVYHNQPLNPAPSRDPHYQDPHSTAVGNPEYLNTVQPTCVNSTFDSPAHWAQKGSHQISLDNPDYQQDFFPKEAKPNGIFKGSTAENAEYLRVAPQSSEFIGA
WT-EGFR, sequence (P00533 668-1210): as above

For the compound `C#CCNC(=O)c1cc(Nc2cc(C3CC3)[nH]n2)nc(N2CCN(Cc3ccc(C=O)c(O)c3)CC2)n1` [Compound 1], at WT-EGFR, the “off-rate kinetics after jump dilution” value is “enzymatic activity quickly returned following dilution”.

Consider `COc1cc(N2CCC(N3CCN(C)CC3)CC2)ccc1Nc1ncc(-c2ccc(O)c(C=O)c2)c(Nc2ccccc2)n1` [Compound 3], for which, at WT-EGFR, the “off-rate kinetics after jump dilution” value is given as “slow-off kinetics”.

On to `COc1cc(N2CCC(N3CCN(C)CC3)CC2)ccc1Nc1ncc(Cl)c(Nc2ccccc2-c2cccc(C=O)c2O)n1` [Compound 6], for which the IC50 at EGFR WT is over 1000 nM. Also, the “off-rate kinetics after jump dilution” value on WT-EGFR is reported as “slow-off kinetics”.

As to `COc1cc(N(C)CCN(C)C)c(NC(C)=O)cc1Nc1nccc(-c2cn(Cc3cccc(C=O)c3O)c3ccccc23)n1` [Compound 7], the “off-rate kinetics after jump dilution” value on WT-EGFR was “slow-off kinetics”.

Take `CC(C)(O)Cn1/c(=N/C(=O)c2ccnc(Oc3cccc(O)c3C=O)c2)[nH]c2ccccc21` [Compound 121]: the IC50 on EGFR WT in Ba/F3 cells is over 10000 nM; on EGFR WT, 10.5 nM.

Take `O=Cc1c(O)cccc1Oc1cc(C(=O)/N=c2\[nH]c3ccccc3n2[C@H]2CC[C@@H](O)CC2)ccn1` [Compound 122]: the results for the IC50 against EGFR WT in Ba/F3 cells and on EGFR WT were 5260 nM and 8.24 nM, respectively.

For `O=Cc1c(O)cccc1Oc1cc(C(=O)/N=c2\[nH]c3ccccc3n2CCN2CCOCC2)ccn1` [Compound 123], the IC50 was over 10000 nM against EGFR WT in Ba/F3 cells and 221 nM on EGFR WT.

In the case of `CN(C)C/C=C/C(=O)N1CCCC[C@@H](n2c(NC(=O)c3ccnc(-n4cc(-c5cccc(O)c5C=O)cn4)c3)nc3cccc(Cl)c32)C1` [Compound 125], the IC50 was 4900 nM against EGFR WT in Ba/F3 cells and 29.4 nM on EGFR WT.

In the case of `CN(C)C/C=C/C(=O)N1CCCC[C@@H](n2c(NC(=O)c3ccnc(Oc4cccc(O)c4C=O)c3)nc3cccc(Cl)c32)C1` [Compound 126], the figures for the IC50 at EGFR WT in Ba/F3 cells and on EGFR WT were 2030 nM and 13 nM, respectively.

On to `CC(C)(O)Cn1/c(=N/C(=O)c2ccnc(C#Cc3cccc(O)c3C=O)c2)[nH]c2ccccc21` [Compound 127], for which the IC50 at EGFR WT in Ba/F3 cells was over 10000 nM; on EGFR WT, 38.2 nM.

Regarding `CC(C)(O)Cn1/c(=N/C(=O)c2ccnc(-c3cccc(-c4cccc(O)c4C=O)c3)c2)[nH]c2ccccc21` [Compound 130], the IC50 against EGFR WT in Ba/F3 cells stood at 6430 nM; on EGFR WT, 529 nM.

`CC(C)(O)Cn1/c(=N/C(=O)c2ccnc(N3CCN(c4cccc(O)c4C=O)CC3)c2)[nH]c2ccccc21` [Compound 131]: the figures for the half-inhibitory concentration (IC50) on EGFR WT in Ba/F3 cells and at EGFR WT were over 10000 nM and over 1000 nM, respectively.

`CC(C)(O)Cn1/c(=N/C(=O)c2ccnc(-c3ccc(-c4cccc(O)c4C=O)cc3)c2)[nH]c2ccccc21` [Compound 132]: the IC50 on EGFR WT in Ba/F3 cells is over 10000 nM; at EGFR WT, over 1000 nM.

For the compound `CC(C)(O)Cn1/c(=N/C(=O)c2ccnc(COc3cccc(O)c3C=O)c2)[nH]c2ccccc21` [Compound 133], the IC50 against EGFR WT in Ba/F3 cells was over 10000 nM; at EGFR WT, 316 nM.

As for `CC(C)(O)Cn1/c(=N/C(=O)c2ccnc(Nc3cccc(C=O)c3O)c2)[nH]c2ccccc21` [Compound 134], the figures for the IC50 on EGFR WT in Ba/F3 cells and on EGFR WT were over 10000 nM and over 1000 nM, respectively.

In the case of `CC(C)(O)Cn1/c(=N/C(=O)c2ccnc(CCc3cccc(O)c3C=O)c2)[nH]c2ccccc21` [Compound 135], the IC50 against EGFR WT in Ba/F3 cells was determined as 5200 nM; at EGFR WT it was 80.1 nM.
